From patent publication US20190389850A1, “COMPOUNDS” (GLAXOSMITHKLINE INTELLECTUAL PROPERTY DEVELOPMENT LIMITED, priority 2017, published 2019) come the findings set out here.

“And” between values parts separate entries of the source, which are not always exact repeats. Identical values can stand only once. A value given as a limit tells only on which side of the number the result lay.

Experiment [1] deals with T1, recombinant full length LRRK2 protein (LRRK2 Ser935 phosphorylation) (Homo sapiens, UniProt Q5S007).
T1 construct: A BacMam virus expressing full length recombinant LRRK2 was purchased from Invitrogen; host or cells: SH-SY5Y human neuroblastoma cells transduced with BacMam LRRK2 virus
Briefly: Recombinant cellular LRRK2 AlphaScreen assay. The format is cell-based. Conditions: SH-SY5Y cells over-expressing recombinant full length LRRK2, 60 minutes, read-out: pIC50 in the recombinant cellular LRRK2 AlphaScreen assay (converted). An excerpt:
b. Recombinant Cellular LRRK2 AlphaScreen Assay
To determine the activity of compounds against LRRK2 kinase activity in cells, the observed LRRK2 kinase-dependent modulation of LRRK2 Ser 935 phosphorylation (Dzamko et al., 2010, Biochem. J. 430: 405-413) was utilized to develop a quantitative 384 well plate-based immunoassay of LRRK2 Ser935 phosphorylation in the human neuroblastoma cell line SH-SY5Y, engineered to over-express recombinant full length LRRK2 protein.
A BacMam virus expressing full length recombinant LRRK2 was purchased from Invitrogen and amplified by inoculation of SF-9 cells at MOI 0.3 for 4-5 days in Sf-900 III SFM medium supplemented with 3% fetal bovine serum. Infected cell cultures were then centrifuged at 2000 g for 20 minutes, viral supernatant titer determined by anti-gp64 plaque assay and stored at 4° C.
Affinity-purified anti-phospho LRRK2 Ser935 sheep polyclonal antibody (Dzamko et al., 2010, Biochem. J. 430: 405-413) was biotinylated by standard methods (PerkinElmer). Anti-LRRK2 rabbit polyclonal antibody was purchased from Novus Biologicals. AlphaScreen Protein A IgG Kit (including acceptor and donor beads) was purchased from Perkin Elmer.
SH-SY5Y cells were grown in DMEM/F12 medium with 10% dialysed fetal bovine serum and harvested by treatment with 0.5% trypsin-EDTA for 5 minutes at 37° C. followed by centrifugation at 1000 rpm for 4 minutes. The cell pellet was resuspended in Opti-MEM reduced serum media (Invitrogen) at 200,000 cells/ml and mixed with the BacMam LRRK2 virus at MOI=50. 50 μl cell solutions were then dispensed to each well of a 384-well plate and incubated at 37° C., 5% CO2 for 24 hours.
Serial dilutions of test compounds were prepared in Opti-MEM reduced serum media (Invitrogen) and 5.6 ul transferred from compound plate to cell assay plate to achieve a top final assay concentration of 10 uM. DMSO was used in certain wells as controls. Cells were incubated at 37° C., 5% CO2 for 60 minutes. The medium was then removed and cells lysed by addition of 20 ul cell lysis buffer (Cell Signaling Technology) and incubation at 4° C. for 20 minutes. 10 ul of antibody/acceptor bead mix [(1/1000 biotinylated-pS935 LRRK2 antibody, 1/1000 total-LRRK2 antibody, 1/100 Acceptor beads in AlphaScreen detection buffer (25 mM Hepes (pH 7.4), 0.5% Triton X-100, 1 mg/ml Dextran 500 and 0.1% BSA)] was then added to each well and plates incubated for 2 hours at ambient temperature in the dark. 10 μl of donor beads solution (1/33.3 donor beads in AlphaScreen detection buffer) was then added to each well. Following incubation for a further 2 hours at ambient temperature in the dark, plates were read on an EnVision™ plate reader at emission 520-620 nm with excitation 680 nm. Dose response curve data was based on sigmoidal dose-response model.

Experiment [2] has as its target T2, Full length G2019 human LRRK2 (Homo sapiens, UniProt Q5S007).
T2 construct: purified recombinant Full length Flag-LRRK2; made in house; host or cells: HEK293 6E cells transduced with BacMam virus (virus made in Sf9)
In words: Full length G2019 human LRRK2 Inhibition Mass Spectrometry assay. The format is biochemical. Conditions: LRRKtide to phospho-LRRKtide conversion, RapidFire mass spectrometry; 25 nM LRRK2, 2 mM ATP; read-out: pIC50 in the full length G2019 human LRRK2 Inhibition Mass Spectrometry assay (converted). The protocol:
a. Full Length G2019 Human LRRK2 Inhibition Mass Spectrometry Assay
This assay for Leucine Rich Repeat Kinase 2 (LRRK2) inhibition is based on the direct measurement of the peptide ‘LRRKtide’ (LRRKtide: RLGRDKYKT*LRQIRQ and “*” refers to the site of phosphorylation.) and phosphorylated ‘LRRKtide’ using a high throughput RapidFire mass spectrometry assay. Inhibitors are compounds that reduce the conversion of LRRKtide to phospho-LRRKtide.
• 1) A 10 mM test compound was dissolved in 100% DMSO and serially diluted 1 in 4. 100 nL of this dilution series was then added to a 384 well, v bottom polypropylene plate, excluding columns 6 and 18. 100 nL of DMSO was added to columns 6 and 18 as controls wells. […] Test plates were then analysed on an Agilent RapidFire High Throughput solid phase extraction system coupled to AB Sciex API 4000 triple quadropole mass spectrometer with the following setting: RapidFire settings: • Sip Height=2 mm, Aspirate=500 ms, Load time=3000 ms, Elution time=3000 ms, Requilibration=500 ms. • Flow rates: pump 1=1.5 mL/min, pump 2 1.25 mL/min pump 3=0.8 mL/min Mass Spectrometer Settings: • LRRKtide Detection settings: Q1 mass 644.8 Da, Q3 mass 638.8, declustering potential 76 volts, collision energy 37 volts, CXP 34 volts. • Phospho-LRRKtide Detection settings: Q1 mass 671.4 Da, Q3 mass 638.8, Declustering potential 76 volts, Collision energy 37 volts, CXP 34 volts. • A C4 cartridge was used and running buffers were: A (aqueous) 0.1% formic acid in water B (organic) 0.1% formic acid, 80% acetonitrile, 20% water. • Collision gas: 12, Curtain gas: 25, Ion Source gas (1): 60, Ion Source gas (2): 60, Ion Spray Voltage: 5500, Temperature: 600, Interface Heater: ON. • Resolution Q1: low, Resolution Q3: low. • 6) Data was analysed using ActivityBase software (IDBS). A percent conversion from LRRKtide to Phospho-LRRKtide was calculated using the following formula: […]

T1 sequence (Q5S007 whole entry): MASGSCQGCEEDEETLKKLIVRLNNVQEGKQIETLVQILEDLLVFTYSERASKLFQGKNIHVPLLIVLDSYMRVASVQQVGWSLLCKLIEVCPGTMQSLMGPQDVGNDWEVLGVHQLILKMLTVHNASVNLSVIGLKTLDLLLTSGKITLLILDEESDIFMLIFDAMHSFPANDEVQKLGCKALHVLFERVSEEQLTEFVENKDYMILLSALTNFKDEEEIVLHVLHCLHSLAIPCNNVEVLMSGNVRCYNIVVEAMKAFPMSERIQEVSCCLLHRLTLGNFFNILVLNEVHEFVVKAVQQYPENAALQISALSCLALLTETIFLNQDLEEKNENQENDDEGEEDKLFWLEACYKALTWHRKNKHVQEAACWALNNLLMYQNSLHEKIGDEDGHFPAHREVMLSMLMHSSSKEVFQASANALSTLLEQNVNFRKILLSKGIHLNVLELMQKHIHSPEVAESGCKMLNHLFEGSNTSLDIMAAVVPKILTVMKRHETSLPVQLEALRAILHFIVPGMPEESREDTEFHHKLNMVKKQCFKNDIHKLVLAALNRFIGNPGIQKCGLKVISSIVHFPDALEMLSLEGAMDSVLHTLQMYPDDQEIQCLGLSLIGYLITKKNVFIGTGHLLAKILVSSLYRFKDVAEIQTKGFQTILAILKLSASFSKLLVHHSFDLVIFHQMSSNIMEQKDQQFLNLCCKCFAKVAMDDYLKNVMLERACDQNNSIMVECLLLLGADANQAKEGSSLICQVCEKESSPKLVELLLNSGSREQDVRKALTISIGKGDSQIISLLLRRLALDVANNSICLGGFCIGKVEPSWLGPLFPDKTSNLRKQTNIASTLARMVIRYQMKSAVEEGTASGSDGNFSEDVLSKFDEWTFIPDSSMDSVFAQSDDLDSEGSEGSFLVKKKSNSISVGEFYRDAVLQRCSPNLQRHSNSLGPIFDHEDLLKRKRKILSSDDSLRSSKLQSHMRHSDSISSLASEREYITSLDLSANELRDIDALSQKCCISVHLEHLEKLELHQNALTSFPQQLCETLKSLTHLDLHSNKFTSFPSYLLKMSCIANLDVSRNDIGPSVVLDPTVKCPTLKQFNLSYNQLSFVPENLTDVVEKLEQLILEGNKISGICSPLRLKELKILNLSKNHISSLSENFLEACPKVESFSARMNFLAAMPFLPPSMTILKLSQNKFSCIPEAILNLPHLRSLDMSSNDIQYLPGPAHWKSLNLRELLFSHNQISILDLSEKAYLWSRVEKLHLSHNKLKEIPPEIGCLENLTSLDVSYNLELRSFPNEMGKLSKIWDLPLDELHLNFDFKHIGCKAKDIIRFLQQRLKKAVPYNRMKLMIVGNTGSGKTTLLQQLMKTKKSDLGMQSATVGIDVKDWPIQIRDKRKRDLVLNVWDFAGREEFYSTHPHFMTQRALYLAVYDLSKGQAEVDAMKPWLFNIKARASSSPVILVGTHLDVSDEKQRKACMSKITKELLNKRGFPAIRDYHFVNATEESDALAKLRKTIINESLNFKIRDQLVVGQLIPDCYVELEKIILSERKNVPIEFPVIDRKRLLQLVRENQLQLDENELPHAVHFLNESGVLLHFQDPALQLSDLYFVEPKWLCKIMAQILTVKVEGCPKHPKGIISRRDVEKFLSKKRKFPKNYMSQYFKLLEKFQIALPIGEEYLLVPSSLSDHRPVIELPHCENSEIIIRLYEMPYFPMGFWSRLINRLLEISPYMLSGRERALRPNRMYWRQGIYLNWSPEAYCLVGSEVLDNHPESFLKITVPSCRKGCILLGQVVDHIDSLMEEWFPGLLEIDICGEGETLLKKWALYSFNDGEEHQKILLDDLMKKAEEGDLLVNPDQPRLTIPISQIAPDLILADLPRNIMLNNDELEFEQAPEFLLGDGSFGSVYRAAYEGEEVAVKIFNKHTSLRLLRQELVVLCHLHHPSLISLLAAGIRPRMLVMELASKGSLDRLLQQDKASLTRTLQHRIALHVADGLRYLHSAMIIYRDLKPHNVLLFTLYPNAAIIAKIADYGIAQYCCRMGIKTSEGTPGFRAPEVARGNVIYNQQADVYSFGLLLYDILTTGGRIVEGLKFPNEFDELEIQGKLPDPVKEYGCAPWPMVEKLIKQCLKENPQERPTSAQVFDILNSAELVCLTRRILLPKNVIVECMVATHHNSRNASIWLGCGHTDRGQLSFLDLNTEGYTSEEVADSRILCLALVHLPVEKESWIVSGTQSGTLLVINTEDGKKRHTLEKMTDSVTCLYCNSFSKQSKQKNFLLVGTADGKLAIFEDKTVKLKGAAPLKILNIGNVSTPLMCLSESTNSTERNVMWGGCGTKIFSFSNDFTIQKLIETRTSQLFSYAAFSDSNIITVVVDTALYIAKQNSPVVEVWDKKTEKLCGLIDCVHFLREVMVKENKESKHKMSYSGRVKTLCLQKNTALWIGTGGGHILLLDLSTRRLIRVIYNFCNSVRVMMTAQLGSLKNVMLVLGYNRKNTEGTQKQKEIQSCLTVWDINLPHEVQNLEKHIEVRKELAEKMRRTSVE
T2 sequence (Q5S007 with tags, fused parts or gaps R50H): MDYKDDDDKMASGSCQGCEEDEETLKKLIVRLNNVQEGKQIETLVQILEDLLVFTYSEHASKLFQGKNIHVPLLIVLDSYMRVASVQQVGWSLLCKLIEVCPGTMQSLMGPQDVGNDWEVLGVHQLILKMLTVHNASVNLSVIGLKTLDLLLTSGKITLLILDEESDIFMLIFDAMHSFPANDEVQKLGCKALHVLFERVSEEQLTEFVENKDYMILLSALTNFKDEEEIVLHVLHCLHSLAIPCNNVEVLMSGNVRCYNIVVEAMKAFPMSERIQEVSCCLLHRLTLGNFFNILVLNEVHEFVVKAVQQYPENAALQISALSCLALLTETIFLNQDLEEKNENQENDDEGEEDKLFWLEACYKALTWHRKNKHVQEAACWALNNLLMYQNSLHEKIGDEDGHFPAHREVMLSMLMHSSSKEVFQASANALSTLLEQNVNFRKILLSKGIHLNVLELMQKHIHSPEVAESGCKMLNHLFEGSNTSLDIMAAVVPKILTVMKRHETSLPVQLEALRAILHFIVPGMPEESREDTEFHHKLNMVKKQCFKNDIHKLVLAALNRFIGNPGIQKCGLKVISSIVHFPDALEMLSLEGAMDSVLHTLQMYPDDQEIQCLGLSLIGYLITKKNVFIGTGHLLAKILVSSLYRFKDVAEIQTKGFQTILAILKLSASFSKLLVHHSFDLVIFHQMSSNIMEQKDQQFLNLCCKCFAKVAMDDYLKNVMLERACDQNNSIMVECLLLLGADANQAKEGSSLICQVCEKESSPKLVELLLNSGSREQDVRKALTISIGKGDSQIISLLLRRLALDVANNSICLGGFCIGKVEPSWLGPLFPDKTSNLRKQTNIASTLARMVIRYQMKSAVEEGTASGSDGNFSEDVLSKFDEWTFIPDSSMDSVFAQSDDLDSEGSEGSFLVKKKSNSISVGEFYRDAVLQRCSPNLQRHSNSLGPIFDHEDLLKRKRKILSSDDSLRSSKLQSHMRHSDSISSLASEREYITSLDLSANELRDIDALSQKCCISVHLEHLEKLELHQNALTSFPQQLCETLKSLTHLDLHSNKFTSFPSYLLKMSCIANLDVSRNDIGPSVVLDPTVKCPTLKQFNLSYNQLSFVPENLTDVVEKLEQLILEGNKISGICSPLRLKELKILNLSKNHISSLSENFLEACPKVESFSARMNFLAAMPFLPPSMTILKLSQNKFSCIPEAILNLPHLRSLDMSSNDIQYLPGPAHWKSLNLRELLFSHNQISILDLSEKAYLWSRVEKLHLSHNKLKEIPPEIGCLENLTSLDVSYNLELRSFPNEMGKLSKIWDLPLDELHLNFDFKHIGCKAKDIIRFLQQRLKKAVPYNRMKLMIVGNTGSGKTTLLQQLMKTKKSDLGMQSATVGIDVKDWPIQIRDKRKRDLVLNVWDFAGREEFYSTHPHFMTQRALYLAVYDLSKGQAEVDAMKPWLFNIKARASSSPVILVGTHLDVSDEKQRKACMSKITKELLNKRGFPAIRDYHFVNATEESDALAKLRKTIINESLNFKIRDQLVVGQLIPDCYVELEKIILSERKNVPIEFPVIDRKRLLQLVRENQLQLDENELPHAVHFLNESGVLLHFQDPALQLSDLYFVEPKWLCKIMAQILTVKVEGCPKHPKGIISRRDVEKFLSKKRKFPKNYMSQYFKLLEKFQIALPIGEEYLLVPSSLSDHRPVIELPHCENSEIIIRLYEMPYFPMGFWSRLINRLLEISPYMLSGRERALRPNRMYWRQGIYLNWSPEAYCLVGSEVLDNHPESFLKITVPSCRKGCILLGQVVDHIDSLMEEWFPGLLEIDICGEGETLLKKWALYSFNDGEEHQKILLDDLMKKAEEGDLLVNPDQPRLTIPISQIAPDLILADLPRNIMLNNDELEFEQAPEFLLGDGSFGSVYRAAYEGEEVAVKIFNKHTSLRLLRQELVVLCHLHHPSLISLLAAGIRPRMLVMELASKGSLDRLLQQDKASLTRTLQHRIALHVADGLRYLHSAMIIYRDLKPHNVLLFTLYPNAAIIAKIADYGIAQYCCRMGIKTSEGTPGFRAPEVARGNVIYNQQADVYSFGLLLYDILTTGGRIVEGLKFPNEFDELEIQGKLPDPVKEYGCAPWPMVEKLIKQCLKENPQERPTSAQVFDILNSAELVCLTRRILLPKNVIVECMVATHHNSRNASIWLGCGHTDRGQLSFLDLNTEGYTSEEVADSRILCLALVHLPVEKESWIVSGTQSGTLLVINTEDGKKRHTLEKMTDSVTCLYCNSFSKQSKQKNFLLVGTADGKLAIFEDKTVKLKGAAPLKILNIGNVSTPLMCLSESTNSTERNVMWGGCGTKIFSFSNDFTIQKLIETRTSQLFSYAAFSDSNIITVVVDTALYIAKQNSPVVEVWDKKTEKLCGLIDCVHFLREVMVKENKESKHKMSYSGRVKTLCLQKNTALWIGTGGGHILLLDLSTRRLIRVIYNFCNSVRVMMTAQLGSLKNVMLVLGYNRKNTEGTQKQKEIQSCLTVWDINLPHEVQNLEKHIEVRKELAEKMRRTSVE

As to `Cc1nc(N2CC(C)OC(CO)C2)cc(-n2ncc3cc(C)c(C4CCN(C5COC5)CC4)cc32)n1` (single isomer, unassigned) [Example B-4, (6-Methyl-4-(2-methyl-6-(5-methyl-6-(1-(oxetan-3-yl)piperidin-4-yl)-1H-indazol-1-yl)pyrimidin-4-yl)morpholin-2-yl)methanol], the IC50 in experiment [1] is 316 nM.

As to `Cc1nc(N2CCO[C@H](CO)C2)cc(-n2ncc3cc(C)c(C4CCN(C5(C)COC5)CC4)cc32)n1` [Example A-2, (S)-(4-(2-Methyl-6-(5-methyl-6-(1-(3-methyloxetan-3-yl)piperidin-4-yl)-1H-indazol-1-yl)pyrimidin-4-yl)morpholin-2-yl)methanol], the IC50 in experiment [2] is at most 100 nM.

With `Cc1nc(N2CC(C)OC(CO)C2)cc(-n2ncc3cc(C)c(C4CCN(C5COC5)CC4)cc32)n1` (single isomer, unassigned) [Example B-1, (6-Methyl-4-(2-methyl-6-(5-methyl-6-(1-(oxetan-3-yl)piperidin-4-yl)-1H-indazol-1-yl)pyrimidin-4-yl)morpholin-2-yl)methanol], the IC50 in experiment [1] is 50.1 nM.

As to `COc1nc(N2CCO[C@H](CO)C2)cc(-n2ncc3cc(C)c(C4CCN(C5(C)COC5)CC4)cc32)n1` [Example A-3, (S)-(4-(2-Methoxy-6-(5-methyl-6-(1-(3-methyloxetan-3-yl)piperidin-4-yl)-1H-indazol-1-yl)pyrimidin-4-yl)morpholin-2-yl)methanol], in experiment [1], the IC50 was ≤ 31.6 nM and 12.6 nM.

As to `Cc1nc(N2CC(CO)OCC2C)cc(-n2ncc3cc(C)c(C4CCN(C5COC5)CC4)cc32)n1` (single isomer, unassigned) [Example B-6, (5-methyl-4-(2-methyl-6-(5-methyl-6-(1-(oxetan-3-yl)piperidin-4-yl)-1H-indazol-1-yl)pyrimidin-4-yl)morpholin-2-yl)methanol], the IC50 in experiment [1] is 63.1 nM.

Turning to `Cc1nc(N2CC(C)OC(CO)C2)cc(-n2ncc3cc(C)c(C4CCN(C5COC5)CC4)cc32)n1` (single isomer, unassigned) [Example B-3, (6-Methyl-4-(2-methyl-6-(5-methyl-6-(1-(oxetan-3-yl)piperidin-4-yl)-1H-indazol-1-yl)pyrimidin-4-yl)morpholin-2-yl)methanol], in experiment [1], the IC50 was 50.1 nM.

For the molecule `Cc1nc(N2CCOC(CCO)C2)cc(-n2ncc3cc(C)c(C4CCN(C5COC5)CC4)cc32)n1` (single isomer, unassigned) [Example B-7, 2-(4-(2-methyl-6-(5-methyl-6-(1-(oxetan-3-yl)piperidin-4-yl)-1H-indazol-1-yl)pyrimidin-4-yl)morpholin-2-yl)ethanol], the IC50 in experiment [1] is 79.4 nM; in experiment [2], at most 100 nM.

Consider `Cc1nc(N2CC(C)OC(CO)C2)cc(-n2ncc3cc(C)c(C4CCN(C5COC5)CC4)cc32)n1` (single isomer, unassigned) [Example B-2, (6-Methyl-4-(2-methyl-6-(5-methyl-6-(1-(oxetan-3-yl)piperidin-4-yl)-1H-indazol-1-yl)pyrimidin-4-yl)morpholin-2-yl)methanol], for which the IC50 in experiment [1] is 79.4 nM.

Regarding `Cc1nc(N2CCOC(CCO)C2)cc(-n2ncc3cc(C)c(C4CCN(C5COC5)CC4)cc32)n1` (single isomer, unassigned) [Example B-8, 2-(4-(2-methyl-6-(5-methyl-6-(1-(oxetan-3-yl)piperidin-4-yl)-1H-indazol-1-yl)pyrimidin-4-yl)morpholin-2-yl)ethanol], the IC50 in experiment [1] was 100 nM.

In the case of `COc1nc(N2CCO[C@@H](CO)C2)cc(-n2ncc3cc(C)c(C4CCN(C5(C)COC5)CC4)cc32)n1` [Example A-4, (R)-(4-(2-Methoxy-6-(5-methyl-6-(l-(3-methyloxetan-3-yl)piperidin-4-yl)-1H-indazol-1-yl)pyrimidin-4-yl)morpholin-2-yl)methanol], the IC50 in experiment [1] was at most 31.6 nM.

Turning to `Cc1nc(N2CCO[C@@H](CO)C2)cc(-n2ncc3cc(C)c(C4CCN(C5(C)COC5)CC4)cc32)n1` [Example A-1, (R)-(4-(2-Methyl-6-(5-methyl-6-(1-(3-methyloxetan-3-yl)piperidin-4-yl)-1H-indazol-1-yl)pyrimidin-4-yl)morpholin-2-yl)methanol], the IC50 in experiment [1] is 200 nM; in experiment [2], at most 100 nM.
